Data: patent publication US8324172B2, “G protein coupled receptor agonists and antagonists and methods of activating and inhibiting G protein coupled receptors using the same” (Tufts Medical Center, Inc., priority 2000, dated 2012)
pIC50: −log10 of the molar value. Where a SMILES comes first, the peptide text is derived from it. Where no end group is shown, it is not given here. The star is where a group is joined. Palmitoyl = CCCCCCCCCCCCCCCC(=O)*

Tests used:
[1] = system: human platelets
[2] = system: platelets; assay: Platelet intracellular Ca2+, agonist activity of peptides
[3] = target: T1, PAR1 (Homo sapiens, UniProt P25116); assay: InsP formation (PLC-β) in Rat1 fibroblasts expressing human PAR1; type: cell-based
T1 construct: expressed in transfected cells
T1 sequence (P25116 22-425): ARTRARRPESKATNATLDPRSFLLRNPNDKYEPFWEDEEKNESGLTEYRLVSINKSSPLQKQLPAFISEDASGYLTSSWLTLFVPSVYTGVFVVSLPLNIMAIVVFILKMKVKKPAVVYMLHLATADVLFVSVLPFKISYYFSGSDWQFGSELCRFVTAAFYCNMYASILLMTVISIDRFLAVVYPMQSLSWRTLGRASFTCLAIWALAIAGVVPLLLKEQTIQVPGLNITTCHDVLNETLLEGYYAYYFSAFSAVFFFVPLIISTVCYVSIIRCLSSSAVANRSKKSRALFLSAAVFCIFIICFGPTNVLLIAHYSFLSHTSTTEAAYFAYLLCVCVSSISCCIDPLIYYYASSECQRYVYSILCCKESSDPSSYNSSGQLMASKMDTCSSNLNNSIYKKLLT

## CCCCCCCCCCCCCCCC(=O)O [Palmitic acid, reference compound]
[1]
  agonist activity in platelet aggregation: has no effect
[2]
  agonist activity, platelet intracellular Ca2+: has no effect

## CCCCCCCCCCCCCCCC(=O)N[C@@H](CCCNC(=N)N)C(=O)N[C@@H](CS)C(=O)N[C@@H](CCC(=O)O)C(=O)N[C@@H](CO)C(=O)N[C@@H](CO)C(=O)N[C@@H](CO)C(=O)N[C@@H](C)C(=O)N[C@@H](CCC(=O)O)C(=O)N[C@@H](C)C(=O)N[C@@H](CC(N)=O)C(=O)N[C@@H](CCCNC(=N)N)C(=O)N[C@@H](CO)C(=O)N[C@@H](CCCCN)C(=O)N[C@@H](CCCCN)C(=O)N[C@@H](CCC(=O)O)C(=O)N[C@@H](CCCNC(=N)N)C(=O)N[C@@H](CCC(=O)O)C(=O)N[C@@H](CC(C)C)C(=O)N[C@@H](Cc1ccccc1)C(N)=O [Pepducin P1pal-19E] (Palmitoyl-RCESSSAEANRSKKERELF-NH2)
[3]
  Agonist Efficacy: 11 ± 1%
  loss of agonist activity: ~90%
[3]; Antagonist IC50
  pIC50: < 4.30

## VCYVSIIRSLSSSAVANRSKKSRALF [Pepducin P1-i3-26]
[2]
  agonist activity, platelet intracellular Ca2+: gives a minor, unregulated Ca^2+i response

## FSAVFFFVPL1ISTVCYVSI1RCLSSSAVANRSKKSRALF (FSAVFFFVPLIISTVCYVSIIRCLSSSAVANRSKKSRALF) [Pepducin P1-i3-40]
[2]
  agonist activity, platelet intracellular Ca2+: causes a rapid intracellular Ca^2+ transient
  lag phase of Ca2+i transient: < 5 s

## Y12pal-18: pepducin based on the i3-loop of P2Y12; peptide YVRTRGVGKVPRKKVNVF (SEQ ID NO:33) (also: palmitoyl lipid, position not given here) [Pepducin Y12pal-18]
[1]
  agonist activity in platelet aggregation: no agonist activity

## CCCCCCCCCCCCCCCC(=O)N[C@@H](CCCNC(=N)N)C(=O)N[C@@H](CS)C(=O)N[C@@H](CC(C)C)C(=O)N[C@@H](CO)C(=O)N[C@@H](CO)C(=O)N[C@@H](CO)C(=O)N[C@@H](C)C(=O)N[C@H](C(=O)N[C@@H](C)C(=O)N[C@@H](CC(N)=O)C(=O)N[C@@H](CCC(N)=O)C(=O)N[C@@H](CO)C(=O)N[C@@H](CCC(N)=O)C(=O)N[C@@H](CCC(N)=O)C(=O)N[C@@H](CO)C(=O)N[C@@H](CCC(N)=O)C(=O)N[C@@H](C)C(=O)N[C@@H](CC(C)C)C(=O)N[C@@H](Cc1ccccc1)C(N)=O)C(C)C [Pepducin P1pal-19Q] (Palmitoyl-RCLSSSAVANQSQQSQALF-NH2)
[3]
  Agonist Efficacy: 46 ± 8%
  loss in efficacy, stimulation of InsP: 2 fold
[1]; relative to P1pal-19
  loss in efficacy, platelet aggregation: 2 fold

## INLKALAALAKKIL [mastoparan, reference compound]
[3]
  stimulation of InsP production (agonist activity): did not stimulate InsP production

## RSLSSSAVANRSKKSRALF [Pepducin P1-i3-19]
[2]
  agonist activity, platelet intracellular Ca2+: causes little stimulation of Ca^2+ fluxes

## VPLIISTVCYVSIIRCLSSSAVANRSKKSRALF [Pepducin P1-i3-33]
[2]
  agonist activity, platelet intracellular Ca2+: has similar potency to the P1-i3-40 peptide
